{"source": "patent US10966426B2", "about": "“Herbicidal compositions comprising phenylpyrimidines” (BASF SE, priority 2016, dated 2021)", "format_in_all_cases": "in vivo", "key": {"Digitaria sanguinalis": {"test_system": "Digitaria sanguinalis", "experiment": "greenhouse post-emergence treatment, DIGSA", "details": "Digitaria sanguinalis, 480 h, 20 DAT, DIGSA", "method_in_brief": "(§1)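 Greenhouse test in humus-containing (~3.0%) loamy sand at species-dependent temperatures of 10-25° C. or 20-35° C.; treatments applied in water. Damage rated visually after 2–4 weeks (0 = none, 100 = complete destruction or no emergence).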"}, "Papaver rhoeas": {"test_system": "Papaver rhoeas", "experiment": "greenhouse post-emergence treatment, PAPRH", "details": "Papaver rhoeas, 480 h, 20 DAT, PAPRH", "method_in_brief": "(§2)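 Visual herbicidal effect (0–100) recorded over a 2 to 4 week test period after foliar treatment at plant heights of 3 to 15 cm. Expected combination effects derived by the Colby formula from single-component effects X and Y.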"}, "Bromus sterilis": {"test_system": "Bromus sterilis", "experiment": "greenhouse post-emergence treatment, BROST", "details": "Bromus sterilis, 480 h, 20 DAT, BROST", "method_in_brief": "as §1"}, "Brachiaria decumbens": {"test_system": "Brachiaria decumbens", "experiment": "greenhouse post-emergence treatment, BRADC", "details": "Urochloa decumbens, 480 h, 20 DAT, BRADC", "method_in_brief": "(§3)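 Loamy sand, ~3.0% humus; species sown separately; treated at 3–15 cm height; 10% w/w EC diluted in water; 10-25° C./20-35° C. per species; 2–4 wk; visual 0–100 rating.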"}, "Alopecurus myosuroides": {"test_system": "Alopecurus myosuroides", "experiment": "greenhouse post-emergence treatment, ALOMY", "details": "Alopecurus myosuroides, 480 h, 20 DAT, ALOMY", "method_in_brief": "as §1"}, "Echinocloa crus-galli": {"test_system": "Echinocloa crus-galli", "experiment": "greenhouse post-emergence treatment, ECHCG", "details": "Echinochloa crus-galli, 480 h, 20 DAT, ECHCG, dicamba SL 480 g/l solo 35 gai/ha", "method_in_brief": "as §2"}, "Poa annua": {"test_system": "Poa annua", "experiment": "greenhouse post-emergence treatment, POAAN", "details": "Poa annua, 480 h, 20 DAT, POAAN", "method_in_brief": "as §3"}, "Matricaria chamomilla": {"test_system": "Matricaria chamomilla", "experiment": "greenhouse post-emergence treatment, MATCH", "details": "Matricaria chamomilla, 480 h, 70 gai/ha (SL 480 g/l), 20 DAT, MATCH, Table X7, read-out: % activity, solo application", "method_in_brief": "as §2"}, "Helianthus annuus": {"test_system": "Helianthus annuus", "experiment": "greenhouse post-emergence treatment, HELAN", "details": "Helianthus annuus, 480 h, 20 DAT, HELAN, dicamba SL 480 g/l solo 70 gai/ha", "description": "The culture containers used were plastic pots containing loamy sand with approximately 3.0% of humus as substrate. The seeds of the test plants were sown separately for each species.\nFor the post-emergence treatment, the test plants were grown to a plant height of from 3 to 15 cm, depending on the plant habit, and only then treated with the active compounds which had been suspended or emulsified in water. To this end, the test plants were either sown directly, and grown in the same containers, or they were first grown separately as seedlings and transplanted into the test containers a few days prior to treatment.\nDepending on the species, the plants were kept at 10-25° C. and 20-35° C., respectively.\nThe test period extended over 2 to 4 weeks. During this time, the plants were tended and their response to the individual treatments was evaluated.\nEvaluation was carried out using a scale from 0 to 100. 100 means no emergence of the plants, or complete destruction of at least the above-ground parts, and 0 means no damage or normal course of growth. A good herbicidal activity is given at values of at least 70, and very good herbicidal activity is given at values of at least 85.\nThe respective stated components A and B, and if appropriate, C were formulated as a 10% by weight strength emulsion concentrate and, with addition of the amount of solvent system, introduced into the spray liquor used for applying the active compound. In the examples, the solvent used was water.\nIn the examples below, using the method of S. R. Colby (1967) “Calculating synergistic and antagonistic responses of herbicide combinations”, Weeds 15, p. 22ff., the value E, which is expected if the activity of the individual active compounds is only additive, was calculated. E=X+Y−(X·Y/100) where X=effect in percent using herbicide A at an application rate a; • Y=effect in percent using herbicide B at application rate b; • E=expected effect (in %) of herbicide A+herbicide B at application rates a+b."}, "Setaria viridis": {"test_system": "Setaria viridis", "experiment": "greenhouse post-emergence treatment, SETVI", "details": "Setaria viridis, 480 h, 35 gai/ha (SL 480 g/l), 20 DAT, SETVI, Table X7, read-out: % activity, solo application", "method_in_brief": "as §1"}, "Stellaria media": {"test_system": "Stellaria media", "experiment": "greenhouse post-emergence treatment, STEME", "details": "Stellaria media, 480 h, 20 DAT, STEME, dicamba SL 480 g/l solo 35 gai/ha", "method_in_brief": "as §3"}, "Galium aparine": {"test_system": "Galium aparine", "experiment": "greenhouse post-emergence treatment, GALAP", "details": "Galium aparine, 480 h, 20 DAT, GALAP, dicamba SL 480 g/l solo 70 gai/ha", "method_in_brief": "as §2"}, "Lolium multiflorum": {"test_system": "Lolium multiflorum", "experiment": "greenhouse post-emergence treatment, LOLMU", "details": "Lolium multiflorum, 480 h, 20 DAT, LOLMU", "method_in_brief": "as §1"}, "[1]": {"details": "dicamba SL 480 g/l solo 17.5 gai/ha"}, "[2]": {"details": "dicamba SL 480 g/l solo 35 gai/ha"}, "[3]": {"details": "dicamba SL 480 g/l solo 70 gai/ha"}, "[4]": {"details": "dicamba SL 480 g/l solo 140 gai/ha"}, "[5]": {"details": "35 gai/ha (SL 480 g/l), Table X7, read-out: % activity, solo application"}}, "note": "Read-outs that look alike come from different tables or passages of the source."}
{"molecule": "COc1c(Cl)ccc(Cl)c1C(=O)O", "note": "[Dicamba, dicamba]", "values": [{"measurement": "inhibition at 17.5 g/ha", "setting": "Digitaria sanguinalis; [1]", "value": 0, "unit": "%"}, {"measurement": "inhibition at 35 g/ha", "setting": "Digitaria sanguinalis; [2]", "value": 0, "unit": "%"}, {"measurement": "inhibition at 70 g/ha", "setting": "Digitaria sanguinalis; [3]", "value": 0, "unit": "%"}, {"measurement": "inhibition at 140 g/ha", "setting": "Digitaria sanguinalis; [4]", "value": 30, "unit": "%"}, {"measurement": "inhibition at 17.5 g/ha", "setting": "Papaver rhoeas; [1]", "value": 20, "unit": "%"}, {"measurement": "inhibition at 35 g/ha", "setting": "Papaver rhoeas; [2]", "value": 30, "unit": "%"}, {"measurement": "inhibition at 17.5 g/ha", "setting": "Bromus sterilis; [1]", "value": 0, "unit": "%"}, {"measurement": "inhibition at 35 g/ha", "setting": "Bromus sterilis; [2]", "value": 0, "unit": "%"}, {"measurement": "inhibition at 70 g/ha", "setting": "Bromus sterilis; [3]", "value": 0, "unit": "%"}, {"measurement": "inhibition at 140 g/ha", "setting": "Bromus sterilis; [4]", "value": 0, "unit": "%"}, {"measurement": "inhibition at 17.5 g/ha", "setting": "Brachiaria decumbens; [1]", "value": 0, "unit": "%"}, {"measurement": "inhibition at 35 g/ha", "setting": "Brachiaria decumbens; dicamba SL 480 g/l solo 35 gai/ha, read-out: % activity", "value": 0, "unit": "%"}, {"measurement": "inhibition at 140 g/ha", "setting": "Brachiaria decumbens; [4]", "value": 30, "unit": "%"}, {"measurement": "inhibition at 35 g/ha", "setting": "Brachiaria decumbens; [5]", "value": 0, "unit": "%"}, {"measurement": "inhibition at 140 g/ha", "setting": "Alopecurus myosuroides; dicamba SL 480 g/l solo 140 gai/ha, read-out: % activity", "value": 0, "unit": "%"}, {"measurement": "inhibition at 35 g/ha", "setting": "Alopecurus myosuroides; [5]", "value": 0, "unit": "%"}, {"measurement": "inhibition at 70 g/ha", "setting": "Alopecurus myosuroides; 70 gai/ha (SL 480 g/l), Table X7, read-out: % activity, solo application", "value": 0, "unit": "%"}, {"measurement": "inhibition at 140 g/ha", "setting": "Alopecurus myosuroides; 140 gai/ha (SL 480 g/l), Table X7, read-out: % activity, solo application", "value": 0, "unit": "%"}, {"measurement": "inhibition at 280 g/ha", "setting": "Alopecurus myosuroides; 280 gai/ha (SL 480 g/l), Table X7, read-out: % activity, solo application", "value": 5, "unit": "%"}, {"measurement": "inhibition at 35 g/ha", "setting": "Echinocloa crus-galli", "value": 0, "unit": "%"}, {"measurement": "inhibition at 17.5 g/ha", "setting": "Poa annua; [1]", "value": 0, "unit": "%"}, {"measurement": "inhibition at 35 g/ha", "setting": "Poa annua; [2]", "value": 0, "unit": "%"}, {"measurement": "inhibition at 70 g/ha", "setting": "Poa annua; [3]", "value": 0, "unit": "%"}, {"measurement": "inhibition at 140 g/ha", "setting": "Poa annua; [4]", "value": 0, "unit": "%"}, {"measurement": "inhibition at 70 g/ha", "setting": "Matricaria chamomilla", "value": 0, "unit": "%"}, {"measurement": "inhibition at 70 g/ha", "setting": "Helianthus annuus", "value": 85, "unit": "%"}, {"measurement": "inhibition at 35 g/ha", "setting": "Setaria viridis", "value": 0, "unit": "%"}, {"measurement": "inhibition at 35 g/ha", "setting": "Stellaria media", "value": 80, "unit": "%"}, {"measurement": "inhibition at 70 g/ha", "setting": "Galium aparine", "value": 85, "unit": "%"}, {"measurement": "inhibition at 17.5 g/ha", "setting": "Lolium multiflorum; [1]", "value": 0, "unit": "%"}, {"measurement": "inhibition at 35 g/ha", "setting": "Lolium multiflorum; [2]", "value": 0, "unit": "%"}]}
